Data: PubChem BioAssay AID1259407 (Chemical Carcinogenesis Research Information System (CCRIS), 2018)
The source made the active and inactive calls. The rule behind the calls is not given here.

Tested on: CCRIS mutagenicity, Ames/micronucleus/aberration tests
Test: CCRIS mutagenicity studies
Conditions: Test System: AMES SALMONELLA TYPHIMURIUM

Measured: mutagenic call

CCNc1nc(Cl)nc(NC(C)C)n1
inactive: Strain/Indicator: TA97, Metabolic Activation: HAMSTER, LIVER, S-9, AROCLOR 1254 (10%), Method: PREINCUBATION inactive; negative | Strain/Indicator: TA97, Metabolic Activation: HAMSTER, LIVER, S-9, AROCLOR 1254 (30%), Method: PREINCUBATION inactive; negative | Strain/Indicator: TA97, Metabolic Activation: NONE, Method: PREINCUBATION inactive; negative | Strain/Indicator: TA97, Metabolic Activation: NONE, Method: STANDARD PLATE inactive; negative | Strain/Indicator: TA97, Metabolic Activation: RAT, LIVER, S-9, AROCLOR 1254 (10%), Method: PREINCUBATION inactive; negative | Strain/Indicator: TA97, Metabolic Activation: RAT, LIVER, S-9, AROCLOR 1254 (30%), Method: PREINCUBATION inactive; negative | Strain/Indicator: TA97, Metabolic Activation: RAT, LIVER, S-9, AROCLOR 1254, Method: STANDARD PLATE inactive; negative | Strain/Indicator: TA97A, Metabolic Activation: NONE, Method: STANDARD PLATE inactive; negative | Strain/Indicator: TA97A, Metabolic Activation: RAT, LIVER, S-9, AROCLOR 1254, Method: STANDARD PLATE inactive; negative | Strain/Indicator: TA98, Metabolic Activation: HAMSTER, LIVER, S-9, AROCLOR 1254 (10%), Method: PREINCUBATION inactive; negative | Strain/Indicator: TA98, Metabolic Activation: HAMSTER, LIVER, S-9, AROCLOR 1254 (30%), Method: PREINCUBATION inactive; negative | Strain/Indicator: TA98, Metabolic Activation: NONE inactive; negative | Strain/Indicator: TA98, Metabolic Activation: NONE, Method: PREINCUBATION inactive; negative | Strain/Indicator: TA98, Metabolic Activation: PIG, LIVER, S-9, SODIUM PHENOBARBITAL AND BETA-NAPHTHOFLAVONE, Method: STANDARD PLATE inactive; negative | Strain/Indicator: TA98, Metabolic Activation: RAT, LIVER, S-9, AROCLOR 1254 inactive; negative | Strain/Indicator: TA98, Metabolic Activation: RAT, LIVER, S-9, AROCLOR 1254 (10%), Method: PREINCUBATION inactive; negative | Strain/Indicator: TA98, Metabolic Activation: RAT, LIVER, S-9, AROCLOR 1254 (30%), Method: PREINCUBATION inactive; negative | Strain/Indicator: TA98, Metabolic Activation: RAT, LIVER, S-9, AROCLOR 1254, Method: STANDARD PLATE inactive; negative | Strain/Indicator: TA98, Metabolic Activation: S-9, Method: STANDARD PLATE inactive; negative | Strain/Indicator: TA100, Metabolic Activation: HAMSTER, LIVER, S-9, AROCLOR 1254 (10%), Method: PREINCUBATION inactive; negative | Strain/Indicator: TA100, Metabolic Activation: HAMSTER, LIVER, S-9, AROCLOR 1254 (30%), Method: PREINCUBATION inactive; negative | Strain/Indicator: TA100, Metabolic Activation: NONE inactive; negative | Strain/Indicator: TA100, Metabolic Activation: NONE, Method: PREINCUBATION inactive; negative | Strain/Indicator: TA100, Metabolic Activation: PIG, LIVER, S-9, SODIUM PHENOBARBITAL AND BETA-NAPHTHOFLAVONE, Method: STANDARD PLATE inactive; negative | Strain/Indicator: TA100, Metabolic Activation: RAT, LIVER, S-9, AROCLOR 1254 inactive; negative | Strain/Indicator: TA100, Metabolic Activation: RAT, LIVER, S-9, AROCLOR 1254 (10%), Method: PREINCUBATION inactive; negative | Strain/Indicator: TA100, Metabolic Activation: RAT, LIVER, S-9, AROCLOR 1254 (30%), Method: PREINCUBATION inactive; negative | Strain/Indicator: TA100, Metabolic Activation: RAT, LIVER, S-9, AROCLOR 1254, Method: STANDARD PLATE inactive; negative | Strain/Indicator: TA100, Metabolic Activation: S-9, Method: STANDARD PLATE inactive; negative | Strain/Indicator: TA102, Metabolic Activation: NONE inactive; negative | Strain/Indicator: TA102, Metabolic Activation: NONE, Method: STANDARD PLATE inactive; negative | Strain/Indicator: TA102, Metabolic Activation: RAT, LIVER, S-9, AROCLOR 1254 inactive; negative | Strain/Indicator: TA102, Metabolic Activation: RAT, LIVER, S-9, AROCLOR 1254, Method: STANDARD PLATE inactive; negative | Strain/Indicator: TA1535, Metabolic Activation: HAMSTER, LIVER, S-9, AROCLOR 1254 (10%), Method: PREINCUBATION inactive; negative | Strain/Indicator: TA1535, Metabolic Activation: HAMSTER, LIVER, S-9, AROCLOR 1254 (30%), Method: PREINCUBATION inactive; negative | Strain/Indicator: TA1535, Metabolic Activation: NONE inactive; negative | Strain/Indicator: TA1535, Metabolic Activation: NONE, Method: PREINCUBATION inactive; negative | Strain/Indicator: TA1535, Metabolic Activation: NONE, Method: STANDARD PLATE inactive; negative | Strain/Indicator: TA1535, Metabolic Activation: RAT, LIVER, S-9, AROCLOR 1254 inactive; negative | Strain/Indicator: TA1535, Metabolic Activation: RAT, LIVER, S-9, AROCLOR 1254 (10%), Method: PREINCUBATION inactive; negative | Strain/Indicator: TA1535, Metabolic Activation: RAT, LIVER, S-9, AROCLOR 1254 (30%), Method: PREINCUBATION inactive; negative | Strain/Indicator: TA1535, Metabolic Activation: RAT, LIVER, S-9, AROCLOR 1254, Method: STANDARD PLATE inactive; negative | Strain/Indicator: TA1537, Metabolic Activation: HAMSTER, LIVER, S-9, AROCLOR 1254 (10%), Method: PREINCUBATION inactive; negative | Strain/Indicator: TA1537, Metabolic Activation: HAMSTER, LIVER, S-9, AROCLOR 1254 (30%), Method: PREINCUBATION inactive; negative | Strain/Indicator: TA1537, Metabolic Activation: NONE inactive; negative | Strain/Indicator: TA1537, Metabolic Activation: NONE, Method: PREINCUBATION inactive; negative | Strain/Indicator: TA1537, Metabolic Activation: NONE, Method: STANDARD PLATE inactive; negative | Strain/Indicator: TA1537, Metabolic Activation: RAT, LIVER, S-9, AROCLOR 1254 inactive; negative | Strain/Indicator: TA1537, Metabolic Activation: RAT, LIVER, S-9, AROCLOR 1254 (10%), Method: PREINCUBATION inactive; negative | Strain/Indicator: TA1537, Metabolic Activation: RAT, LIVER, S-9, AROCLOR 1254 (30%), Method: PREINCUBATION inactive; negative | Strain/Indicator: TA1537, Metabolic Activation: RAT, LIVER, S-9, AROCLOR 1254, Method: STANDARD PLATE inactive; negative | Strain/Indicator: TA1538, Metabolic Activation: NONE, Method: STANDARD PLATE inactive; negative | Strain/Indicator: TA1538, Metabolic Activation: RAT, LIVER, S-9, AROCLOR 1254, Method: STANDARD PLATE inactive; negative
